In PubChem BioAssay (NCI):
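Five compound concentrations were applied to cells in 96-well plates for 48 hours; endpoints were derived by simple linear interpolation of the resulting dose-response curve. TGI is the concentration that stops growth completely.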

Assays:
Assay in all cases: NCI anticancer screen, dose series, 48 h
DLD-1 colon = tested on: DLD-1 colon
DMS 114 small cell lung = tested on: DMS 114 small cell lung
DMS 273 small cell lung = tested on: DMS 273 small cell lung
HL-60(TB) leukemia = tested on: HL-60(TB) leukemia
K-562 leukemia = tested on: K-562 leukemia
KM20L2 colon = tested on: KM20L2 colon
LXFL 529 NSCLC = tested on: LXFL 529 NSCLC
M19-MEL melanoma = tested on: M19-MEL melanoma
OVCAR-8 ovarian = tested on: OVCAR-8 ovarian
RXF-631 renal = tested on: RXF-631 renal
SK-MEL-2 melanoma = tested on: SK-MEL-2 melanoma
XF 498 CNS = tested on: XF 498 CNS
HOP-18 NSCLC = tested on: HOP-18 NSCLC
SNB-78 CNS = tested on: SNB-78 CNS
NCI/ADR-RES ovarian = tested on: NCI/ADR-RES ovarian

Cc1cc(N(CCC#N)CCC#N)ccc1/C=C/C(=O)Nc1cccc(Cl)c1 was tested, and the TGI (DLD-1 colon) was greater than 100 µM, the TGI (DMS 114 small cell lung) was greater than 100 µM and the TGI (DMS 273 small cell lung) was greater than 100 µM. It also gave a TGI (HL-60(TB) leukemia) greater than 100 µM, a TGI (K-562 leukemia) greater than 100 µM and a TGI (KM20L2 colon) greater than 100 µM. The TGI (LXFL 529 NSCLC) was greater than 100 µM, the TGI (M19-MEL melanoma) was greater than 100 µM and the TGI (OVCAR-8 ovarian) was greater than 100 µM. For the same compound, the TGI (RXF-631 renal) was greater than 100 µM, the TGI (SK-MEL-2 melanoma) was greater than 100 µM and the TGI (XF 498 CNS) was greater than 100 µM.
In the case of CCOc1ccc2nc(NC(=O)c3c/c(=N\NC(=O)C[N+](C)(C)C)c4ccc(O)cc4o3)sc2c1, the TGI (DLD-1 colon) is reported as 13.4 µM, the TGI (DMS 114 small cell lung) is reported as 4.51 µM and the TGI (DMS 273 small cell lung) is reported as 28.7 µM. The TGI (HL-60(TB) leukemia) was 3.83 µM, the TGI (HOP-18 NSCLC) was 5.05 µM and the TGI (K-562 leukemia) was 6.08 µM. For the same compound, the TGI (KM20L2 colon) was 10 µM, the TGI (LXFL 529 NSCLC) was 4.45 µM and the TGI (M19-MEL melanoma) was 0.501 µM. The TGI (OVCAR-8 ovarian) was 7.76 µM, the TGI (RXF-631 renal) was 26.8 µM and the TGI (SK-MEL-2 melanoma) was 6.22 µM. It also gave a TGI (SNB-78 CNS) of 15.5 µM and a TGI (XF 498 CNS) of 6.14 µM.
CCOC1(COP(=O)(OCc2ccccc2)OCc2ccccc2)COC(COP(=O)(OCc2ccccc2)OCc2ccccc2)(OCC)CO1 (stereo not drawn) was tested, and the TGI (DLD-1 colon) was greater than 100 µM, the TGI (DMS 273 small cell lung) was greater than 100 µM and the TGI (HL-60(TB) leukemia) was greater than 100 µM. For the same compound, the TGI (HOP-18 NSCLC) was greater than 100 µM, the TGI (K-562 leukemia) was greater than 100 µM and the TGI (KM20L2 colon) was greater than 100 µM. For the same compound, the TGI (LXFL 529 NSCLC) was greater than 100 µM, the TGI (M19-MEL melanoma) was greater than 100 µM and the TGI (OVCAR-8 ovarian) was greater than 100 µM. For the same compound, the TGI (RXF-631 renal) was greater than 100 µM, the TGI (SK-MEL-2 melanoma) was greater than 100 µM and the TGI (SNB-78 CNS) was greater than 100 µM. It also gave a TGI (XF 498 CNS) greater than 100 µM.
CN(C)CCCNC(=O)N/N=C/c1cccc([N+](=O)[O-])c1 showed a TGI (DLD-1 colon) greater than 100 µM, a TGI (DMS 114 small cell lung) greater than 100 µM and a TGI (DMS 273 small cell lung) greater than 100 µM. The TGI (HOP-18 NSCLC) was greater than 100 µM, the TGI (K-562 leukemia) was greater than 100 µM and the TGI (LXFL 529 NSCLC) was greater than 100 µM. It also gave a TGI (OVCAR-8 ovarian) greater than 100 µM, a TGI (SK-MEL-2 melanoma) greater than 100 µM and a TGI (SNB-78 CNS) greater than 100 µM. For the same compound, the TGI (XF 498 CNS) was greater than 100 µM.
Compound CC12NN=NC1C(=O)NC2=O (stereo not drawn) has a TGI (DLD-1 colon) greater than 100 µM, a TGI (DMS 114 small cell lung) greater than 100 µM and a TGI (DMS 273 small cell lung) greater than 100 µM. The TGI (HL-60(TB) leukemia) was greater than 100 µM, the TGI (K-562 leukemia) was greater than 100 µM and the TGI (KM20L2 colon) was greater than 100 µM. For the same compound, the TGI (LXFL 529 NSCLC) was greater than 100 µM, the TGI (M19-MEL melanoma) was greater than 100 µM and the TGI (OVCAR-8 ovarian) was greater than 100 µM. For the same compound, the TGI (SK-MEL-2 melanoma) was greater than 100 µM and the TGI (SNB-78 CNS) was greater than 100 µM.
With COc1cc(OC)c(/C=C2\N=C(C)N(Nc3nnc(NN4C(=O)/C(=C/c5c(OC)cc(OC)cc5OC)N=C4C)c4ccccc34)C2=O)c(OC)c1 the TGI (DLD-1 colon) was greater than 100 µM, the TGI (DMS 114 small cell lung) was greater than 100 µM and the TGI (DMS 273 small cell lung) was greater than 100 µM. The TGI (HL-60(TB) leukemia) was greater than 100 µM, the TGI (HOP-18 NSCLC) was greater than 100 µM and the TGI (K-562 leukemia) was greater than 100 µM. The TGI (KM20L2 colon) was greater than 100 µM, the TGI (LXFL 529 NSCLC) was greater than 100 µM and the TGI (M19-MEL melanoma) was greater than 100 µM. The TGI (OVCAR-8 ovarian) was greater than 100 µM and the TGI (SNB-78 CNS) was greater than 100 µM.
O=c1cc(-c2ccccc2)[nH]c2cc(O)ccc12 showed a TGI (DLD-1 colon) of 35.7 µM, a TGI (DMS 114 small cell lung) of 34 µM and a TGI (DMS 273 small cell lung) of 87.8 µM. It also gave a TGI (HL-60(TB) leukemia) of 40.7 µM, a TGI (HOP-18 NSCLC) greater than 100 µM and a TGI (K-562 leukemia) of 39.2 µM. For the same compound, the TGI (KM20L2 colon) was 40.4 µM, the TGI (LXFL 529 NSCLC) was greater than 100 µM and the TGI (M19-MEL melanoma) was 35.3 µM. It also gave a TGI (OVCAR-8 ovarian) greater than 100 µM, a TGI (RXF-631 renal) greater than 100 µM and a TGI (SK-MEL-2 melanoma) of 94.9 µM. It also gave a TGI (SNB-78 CNS) greater than 100 µM and a TGI (XF 498 CNS) of 50.4 µM.
In the case of CN(CCO)c1nc2c(c(=O)[nH]1)CCC2, the TGI (DLD-1 colon) is reported as greater than 100 µM, the TGI (DMS 114 small cell lung) is reported as greater than 100 µM and the TGI (DMS 273 small cell lung) is reported as greater than 100 µM. The TGI (HL-60(TB) leukemia) was greater than 100 µM, the TGI (HOP-18 NSCLC) was greater than 100 µM and the TGI (K-562 leukemia) was greater than 100 µM. The TGI (KM20L2 colon) was greater than 100 µM, the TGI (LXFL 529 NSCLC) was greater than 100 µM and the TGI (M19-MEL melanoma) was greater than 100 µM. The TGI (OVCAR-8 ovarian) was greater than 100 µM, the TGI (SK-MEL-2 melanoma) was greater than 100 µM and the TGI (SNB-78 CNS) was greater than 100 µM. The TGI (XF 498 CNS) was greater than 100 µM.
With Cc1cc(=O)[nH]c(NN2C(Cl)C(=O)C2c2ccc(Cl)cc2)n1 (stereo not drawn) the TGI (DMS 114 small cell lung) was 30 µM, the TGI (DMS 273 small cell lung) was 25.9 µM and the TGI (HL-60(TB) leukemia) was 12.7 µM. For the same compound, the TGI (HOP-18 NSCLC) was 23.2 µM, the TGI (K-562 leukemia) was 16.2 µM and the TGI (KM20L2 colon) was 44.5 µM. It also gave a TGI (LXFL 529 NSCLC) of 19.2 µM, a TGI (M19-MEL melanoma) of 35.7 µM and a TGI (NCI/ADR-RES ovarian) of 54.9 µM. The TGI (OVCAR-8 ovarian) was 56.5 µM, the TGI (SK-MEL-2 melanoma) was 46.4 µM and the TGI (SNB-78 CNS) was 39 µM.
CSCC1CC(c2ccc(Cl)cc2)=NO1 (stereo not drawn) gave a TGI (DLD-1 colon) greater than 100 µM, a TGI (DMS 114 small cell lung) greater than 100 µM and a TGI (DMS 273 small cell lung) greater than 100 µM. The TGI (HL-60(TB) leukemia) was greater than 100 µM, the TGI (HOP-18 NSCLC) was greater than 100 µM and the TGI (K-562 leukemia) was greater than 100 µM. It also gave a TGI (KM20L2 colon) greater than 100 µM, a TGI (LXFL 529 NSCLC) greater than 100 µM and a TGI (M19-MEL melanoma) greater than 100 µM. For the same compound, the TGI (OVCAR-8 ovarian) was greater than 100 µM, the TGI (RXF-631 renal) was greater than 100 µM and the TGI (SK-MEL-2 melanoma) was greater than 100 µM. For the same compound, the TGI (SNB-78 CNS) was greater than 100 µM.
Cn1c(/C=C(\O)c2ccc(Cl)cc2)nc2ccccc21 was tested, and the TGI (DLD-1 colon) was greater than 100 µM, the TGI (HL-60(TB) leukemia) was 77.1 µM and the TGI (K-562 leukemia) was greater than 100 µM. For the same compound, the TGI (KM20L2 colon) was 95.6 µM, the TGI (LXFL 529 NSCLC) was greater than 100 µM and the TGI (M19-MEL melanoma) was greater than 100 µM. For the same compound, the TGI (OVCAR-8 ovarian) was greater than 100 µM, the TGI (RXF-631 renal) was greater than 100 µM and the TGI (SK-MEL-2 melanoma) was greater than 100 µM. It also gave a TGI (SNB-78 CNS) greater than 100 µM and a TGI (XF 498 CNS) greater than 100 µM.
For CCOC(=O)c1nc2ccc([N+](=O)[O-])cc2c2c1CCO2, the TGI (DLD-1 colon) was greater than 100 µM, the TGI (DMS 114 small cell lung) was greater than 100 µM and the TGI (DMS 273 small cell lung) was greater than 100 µM. It also gave a TGI (HL-60(TB) leukemia) greater than 100 µM, a TGI (HOP-18 NSCLC) greater than 100 µM and a TGI (K-562 leukemia) greater than 100 µM. For the same compound, the TGI (KM20L2 colon) was greater than 100 µM, the TGI (LXFL 529 NSCLC) was greater than 100 µM and the TGI (M19-MEL melanoma) was greater than 100 µM. It also gave a TGI (OVCAR-8 ovarian) greater than 100 µM, a TGI (RXF-631 renal) greater than 100 µM and a TGI (SK-MEL-2 melanoma) greater than 100 µM. It also gave a TGI (SNB-78 CNS) greater than 100 µM and a TGI (XF 498 CNS) greater than 100 µM.
COc1ccc(NC(=O)C/C(C)=N\N=C(N)N)c([N+](=O)[O-])c1 gave a TGI (DLD-1 colon) greater than 100 µM, a TGI (DMS 114 small cell lung) greater than 100 µM and a TGI (DMS 273 small cell lung) greater than 100 µM. For the same compound, the TGI (HL-60(TB) leukemia) was greater than 100 µM, the TGI (HOP-18 NSCLC) was greater than 100 µM and the TGI (K-562 leukemia) was greater than 100 µM. The TGI (KM20L2 colon) was greater than 100 µM, the TGI (LXFL 529 NSCLC) was greater than 100 µM and the TGI (M19-MEL melanoma) was greater than 100 µM. The TGI (OVCAR-8 ovarian) was greater than 100 µM, the TGI (SK-MEL-2 melanoma) was greater than 100 µM and the TGI (SNB-78 CNS) was greater than 100 µM. The TGI (XF 498 CNS) was greater than 100 µM.
For CC(=O)C1=CSC2[C@H](NC(=O)Cc3ccccc3)C(=O)N2C1C(=O)OC(c1ccccc1)c1ccccc1 (stereo partly drawn), the TGI (DLD-1 colon) was greater than 100 µM, the TGI (DMS 114 small cell lung) was greater than 100 µM and the TGI (DMS 273 small cell lung) was greater than 100 µM. For the same compound, the TGI (HL-60(TB) leukemia) was greater than 100 µM, the TGI (K-562 leukemia) was greater than 100 µM and the TGI (LXFL 529 NSCLC) was greater than 100 µM. For the same compound, the TGI (M19-MEL melanoma) was greater than 100 µM, the TGI (OVCAR-8 ovarian) was greater than 100 µM and the TGI (RXF-631 renal) was greater than 100 µM. It also gave a TGI (SK-MEL-2 melanoma) greater than 100 µM, a TGI (SNB-78 CNS) greater than 100 µM and a TGI (XF 498 CNS) greater than 100 µM.
